Source: ChEMBL document CHEMBL5303573, “Mapping human microbiome drug metabolism by gut bacteria and their genes” (Nature, 2019)

Columns and labels:
[1] = The drug is tested on Bacteroides dorei strain: DSM17855 for biotransformation. The drug concentrations were measured before and after a 12-h incubation by liquid-chromatography-coupled mass spectrometry (LC–MS); settings: phocaeicola dorei, 2 µM
[2] = The drug is tested on Bifidobacterium longum subsp. Infantis strain: CCUG52486 for biotransformation. The drug concentrations were measured before and after a 12-h incubation by liquid-chromatography-coupled mass spectrometry (LC–MS); settings: 2 µM
[3] = The drug is tested on Eubacterium ventriosum strain: ATCC27560 for biotransformation. The drug concentrations were measured before and after a 12-h incubation by liquid-chromatography-coupled mass spectrometry (LC–MS); format: ADME; parameters: dose 2 uM, timepoint 0 vs 12 hours; settings: 2 µM
[4] = roseburia intestinalis, 12 h, 2 µM
Description: The drug is tested on Roseburia intestinalis strain: L1-82 for biotransformation. The drug concentrations were measured before and after a 12-h incubation by liquid-chromatography-coupled mass spectrometry (LC–MS)

[5] = bifidobacterium adolescentis, 12 h, 2 µM
Description: The drug is tested on Bifidobacterium adolescentis strain: ATCC 15703 for biotransformation. The drug concentrations were measured before and after a 12-h incubation by liquid-chromatography-coupled mass spectrometry (LC–MS)

[6] = The drug is tested on Bifidobacterium ruminantium strain: fecal isolate for biotransformation. The drug concentrations were measured before and after a 12-h incubation by liquid-chromatography-coupled mass spectrometry (LC–MS); settings: 2 µM
[7] = The drug is tested on Bacteroides ovatus strain: ATCC8483 for biotransformation. The drug concentrations were measured before and after a 12-h incubation by liquid-chromatography-coupled mass spectrometry (LC–MS); settings: 2 µM
[8] = The drug is tested on Bifidobacterium breve strain: DSM20213 for biotransformation. The drug concentrations were measured before and after a 12-h incubation by liquid-chromatography-coupled mass spectrometry (LC–MS); settings: 2 µM
[9] = The drug is tested on Ruminococcus torques strain: ATCC27756 for biotransformation. The drug concentrations were measured before and after a 12-h incubation by liquid-chromatography-coupled mass spectrometry (LC–MS); format: ADME; parameters: dose 2 uM, timepoint 0 vs 12 hours; settings: 2 µM
[10] = The drug is tested on Ruminococcus lactaris strain: ATCC29176 for biotransformation. The drug concentrations were measured before and after a 12-h incubation by liquid-chromatography-coupled mass spectrometry (LC–MS); settings: 2 µM
[11] = The drug is tested on Clostridium asparagiforme strain: DSM15981 for biotransformation. The drug concentrations were measured before and after a 12-h incubation by liquid-chromatography-coupled mass spectrometry (LC–MS); format: ADME; parameters: dose 2 uM, timepoint 0 vs 12 hours; settings: enterocloster asparagiformis, 2 µM
[12] = The drug is tested on Eubacterium hallii strain: DSM3353 for biotransformation. The drug concentrations were measured before and after a 12-h incubation by liquid-chromatography-coupled mass spectrometry (LC–MS); settings: anaerobutyricum hallii, 2 µM
[13] = bacteroides fragilis, 12 h, 2 µM
Description: The drug is tested on Bacteroides fragilis strain: NCTC 9343 for biotransformation. The drug concentrations were measured before and after a 12-h incubation by liquid-chromatography-coupled mass spectrometry (LC–MS)

[14] = The drug is tested on Clostridium sp. strain: fecal isolate for biotransformation. The drug concentrations were measured before and after a 12-h incubation by liquid-chromatography-coupled mass spectrometry (LC–MS); settings: 2 µM
[15] = bacteroides fragilis, 12 h, 2 µM; remark: listed apart in the source
Description: The drug is tested on Bacteroides fragilis strain: 3397 (T10) for biotransformation. The drug concentrations were measured before and after a 12-h incubation by liquid-chromatography-coupled mass spectrometry (LC–MS)

[16] = The drug is tested on Collinsella aerofaciens strain: ATCC25986 for biotransformation. The drug concentrations were measured before and after a 12-h incubation by liquid-chromatography-coupled mass spectrometry (LC–MS); settings: 2 µM
[17] = The drug is tested on Clostridium sporogenes strain: ATCC15579 for biotransformation. The drug concentrations were measured before and after a 12-h incubation by liquid-chromatography-coupled mass spectrometry (LC–MS); settings: 2 µM
[18] = The drug is tested on Blautia luti strain: DSM14534 for biotransformation. The drug concentrations were measured before and after a 12-h incubation by liquid-chromatography-coupled mass spectrometry (LC–MS); format: ADME; parameters: dose 2 uM, timepoint 0 vs 12 hours; settings: 2 µM
[19] = bacteroides thetaiotaomicron, 12 h, 2 µM
Description: The drug is tested on Bacteroides thetaiotaomicron strain: 3731 for biotransformation. The drug concentrations were measured before and after a 12-h incubation by liquid-chromatography-coupled mass spectrometry (LC–MS)

[20] = The drug is tested on Clostridium scindens strain: ATCC35704 for biotransformation. The drug concentrations were measured before and after a 12-h incubation by liquid-chromatography-coupled mass spectrometry (LC–MS); settings: 2 µM

| SMILES | Bacterial Biotransformation [1] | Bacterial Biotransformation [2] | Bacterial Biotransformation [3] | Bacterial Biotransformation [4] | Bacterial Biotransformation [5] | Bacterial Biotransformation [6] | Bacterial Biotransformation [7] | Bacterial Biotransformation [8] | Bacterial Biotransformation [9] | Bacterial Biotransformation [10] | Bacterial Biotransformation [11] | Bacterial Biotransformation [12] | Bacterial Biotransformation [13] | Bacterial Biotransformation [14] | Bacterial Biotransformation [15] | Bacterial Biotransformation [16] | Bacterial Biotransformation [17] | Bacterial Biotransformation [18] | Bacterial Biotransformation [19] | Bacterial Biotransformation [20] |
| --- | --- | --- | --- | --- | --- | --- | --- | --- | --- | --- | --- | --- | --- | --- | --- | --- | --- | --- | --- | --- |
| O=c1[nH]c2ccccc2n1C1CCN(CCCC(c2ccc(F)cc2)c2ccc(F)cc2)CC1 [PIMOZIDE] | Compound NOT metabolized | Compound NOT metabolized | Compound NOT metabolized | Compound NOT metabolized | Compound NOT metabolized | Compound NOT metabolized | Compound NOT metabolized | Compound NOT metabolized | Compound NOT metabolized | Compound NOT metabolized | Compound NOT metabolized | Compound NOT metabolized | Compound NOT metabolized | Compound NOT metabolized | Compound NOT metabolized | Compound NOT metabolized | Compound NOT metabolized | Compound NOT metabolized | Compound NOT metabolized | – |
| C[C@]12C=CC(=O)C=C1CC[C@@H]1[C@@H]2C(=O)C[C@@]2(C)[C@H]1CC[C@]2(O)C(=O)CO [PREDNISONE] | Compound NOT metabolized | Compound NOT metabolized | Compound NOT metabolized | Compound NOT metabolized | Compound NOT metabolized | Compound NOT metabolized | Compound NOT metabolized | Compound NOT metabolized | Compound NOT metabolized | Compound NOT metabolized | Compound NOT metabolized | Compound NOT metabolized | Compound NOT metabolized | Compound NOT metabolized | Compound NOT metabolized | Compound NOT metabolized | Compound NOT metabolized | Compound NOT metabolized | Compound NOT metabolized | Compound NOT metabolized |
| CC(C)c1nc(CN(C)C(=O)N[C@H](C(=O)N[C@@H](Cc2ccccc2)C[C@H](O)[C@H](Cc2ccccc2)NC(=O)OCc2cncs2)C(C)C)cs1 [RITONAVIR] | Compound metabolized | Compound NOT metabolized | Compound NOT metabolized | Compound NOT metabolized | – | Compound NOT metabolized | Compound NOT metabolized | Compound NOT metabolized | Compound NOT metabolized | Compound NOT metabolized | Compound NOT metabolized | Compound NOT metabolized | Compound metabolized | Compound metabolized | Compound NOT metabolized | Compound NOT metabolized | Compound NOT metabolized | – | Compound NOT metabolized | Compound NOT metabolized |
| C=CC[C@@H]1/C=C(\C)C[C@H](C)C[C@H](OC)[C@H]2O[C@@](O)(C(=O)C(=O)N3CCCC[C@H]3C(=O)O[C@H](/C(C)=C/[C@@H]3CC[C@@H](O)[C@H](OC)C3)[C@H](C)[C@@H](O)CC1=O)[C@H](C)C[C@@H]2OC.O [TACROLIMUS] | Compound metabolized | Compound NOT metabolized | Compound NOT metabolized | Compound metabolized | Compound NOT metabolized | Compound NOT metabolized | Compound NOT metabolized | Compound NOT metabolized | Compound NOT metabolized | Compound metabolized | Compound metabolized | Compound metabolized | Compound metabolized | Compound metabolized | Compound NOT metabolized | Compound metabolized | Compound metabolized | Compound metabolized | Compound NOT metabolized | Compound metabolized |
| CN(C/C=C/C#CC(C)(C)C)Cc1cccc2ccccc12 [TERBINAFINE] | Compound NOT metabolized | Compound NOT metabolized | Compound NOT metabolized | Compound NOT metabolized | Compound NOT metabolized | Compound NOT metabolized | Compound NOT metabolized | Compound NOT metabolized | Compound NOT metabolized | Compound NOT metabolized | Compound NOT metabolized | Compound NOT metabolized | Compound NOT metabolized | Compound NOT metabolized | Compound NOT metabolized | Compound NOT metabolized | Compound NOT metabolized | Compound NOT metabolized | Compound NOT metabolized | Compound NOT metabolized |
| COc1ccc(CN2CCNCC2)c(OC)c1OC.Cl.Cl [TRIMETAZIDINE DIHYDROCHLORIDE] | Compound metabolized | Compound metabolized | Compound NOT metabolized | Compound NOT metabolized | Compound NOT metabolized | Compound NOT metabolized | Compound metabolized | Compound NOT metabolized | Compound NOT metabolized | Compound NOT metabolized | Compound metabolized | Compound NOT metabolized | Compound metabolized | Compound NOT metabolized | Compound metabolized | Compound NOT metabolized | Compound NOT metabolized | Compound NOT metabolized | Compound metabolized | Compound NOT metabolized |
